Results: patent US20170165266A1 (Celgene Corporation, priority 2010, published 2017)
Counter-ions that a name gives are not always drawn. One block for each molecule: values may come before it.

Experiments:
[1] = system: bleomycin induced dermal fibrosis; assay: Modified bleomycin induced dermal fibrosis mouse model, regression of established fibrosis; format: in vivo, DBA/2 mice; conditions: 30 mg/kg, PO, QD, p<0.0001
Method: Skin fibrosis was induced in 6-week-old DBA mice by local intracutaneous injections of 100 μl of bleomycin dissolved in 0.9% NaCl, at a concentration of 0.5 mg/ml, every other day in defined areas of 1.5 cm2 on the upper back.
Dermal thickness was determined by staining with hematoxylin and eosin and activated fibroblasts by using immunohistochemistry for alpha smooth mucle actin (α-SMA). […] Skin sections were stained with hematoxylin/eosin for better visualization of the tissue structure. Dermal thickness was analyzed with a Nikon Eclipse 80i microscope (Nikon, Badhoevedorp, The Netherlands) by measuring the maximal distance between the epidermal-dermal junction and the dermal-subcutaneous fat junction at 4 different skin sections in each mouse. The evaluation was performed by 2 independent examiners.

IL-10 [2] = assay: IL-10 production in anti-human CD3-stimulated human T cells; format: cell-based
Method: (§1) The test compounds were prepared as stock solutions of 4 mM in DMSO. T cells were isolated from buffy coat by negative selection using the RosetteSep® T Cell Enrichment Cocktail according to manufacturer's procedures. All 96-well plates were pre-coated with 3 μg/mL anti-human CD3 antibody in 100 μL 1× PBS for 4 hours at 37° C. The plates were washed 3 times with RPMI-1640 Complete Media prior to the T cell assay. The T cells were then plated in anti-CD3-pre-coated plates at a density of 2.5×10^5 cells/well in 180 μL RPMI-1640 Complete Media. […] The final DMSO concentrations were 0.25%. The plates were incubated for 48 hours at 37° C., 5% CO2. After 48 hours, the supernatants were harvested and tested by a multiplex cytometric bead array (CBA) assay for the following cytokines/chemokines: IL-2, IL-3, IL-5, IL-10, IL-13, IL-15, IL-17A, GM-CSF, G-CSF, IFN-γ, TNF-α, and RANTES. The CBA plates were analyzed on the Luminex IS100 instrument. Data from each donor was graphed using GraphPad Prism 5.0 software and expressed as mean pg/mL±SEM and % of DMSO control±SEM.

IgG production = IgG production in B cell differentiation assay (ELISA); format: cell-based; conditions: Homo sapiens
Method: (§2) Step 1—B cell Activation—day 0 through day 4: Prepare fresh B cell cocktail by adding 50 μg/mL of human transferrin to B cell media. (Iscoves +10% PFBS, 1% P/S, and 5 μg/mL human insulin). Filter required volume of media needed for experiment through a […] filter. Add B cell differentiation cocktail (final concentration): recombinant human IL-2 (20 U/mL), IL-10 (50 ng/mL), IL-15 (10 ng/mL), CD40 Ligand/TNFSFS/histidine-tagged (50 ng/mL), polyHistidine mouse IgG1 antibody (5 μg/mL), and ODN 2006-Human TLR9 ligand (10 μg/mL) to cells. Five milliliters (1×10^5/ml) of CD19+ B cell were added to each well of a 6 well flat-bottom plate (final cell count=5×10^5/well). Five μL (1×)±compound/DMSO was added to each test well (0.1% final DMSO) and incubated at 37° C. for 4 days.
(§3) Step 2—Plasmablast Generation—day 4 through day 7: Cells were harvested and counted on the cell counter; an aliquot was removed for flow analysis, the remaining cells were washed with PBS. […]
(§4) On day 7, cells were harvested and counted on the cell counter. […]
(§5) Supernatants (from section 8.4.3) were harvested and analyzed by ELISA for IgG and IgM production (ZeptoMetrix Corp. Buffalo, N.Y.).
(§6) The data was graphed using GraphPad Prism 5.0 software. […] The results for test compounds in the Ig assays were expressed as the percentage inhibition relative to control DMSO values.

[3] = system: bleomycin induced dermal fibrosis; assay: Bleomycin induced dermal fibrosis mouse model, prevention of fibrosis; format: in vivo, DBA/2 mice; conditions: 30 mg/kg, PO, QD, p<0.0001
Method: Bleomycin was obtained from the pharmacy of the University of Erlangen-Nuremberg and freshly prepared once a week. Skin fibrosis was induced in 6-week-old DBA mice by local intracutaneous injections of 100 μl of bleomycin dissolved in 0.9% NaCl, at a concentration of 0.5 mg/ml, every other day in defined areas of 1.5 cm2 on the upper back.
In this model, a localized dermal fibrosis is induced by intradermal injections with bleomycin every other day for 3 weeks. […] To evaluate potential effects on prevention of fibrosis, treatment was initiated simultaneously with the first bleomycin injection. […]
Dermal thickness was determined by staining with hematoxylin and eosin and activated fibroblasts by using immunohistochemistry for alpha smooth mucle actin (α-SMA). […] Dermal thickness was analyzed with a Nikon Eclipse 80i microscope (Nikon, Badhoevedorp, The Netherlands) by measuring the maximal distance between the epidermal-dermal junction and the dermal-subcutaneous fat junction at 4 different skin sections in each mouse. […]
For quantification of myofibroblasts, skin sections were deparaffinized and incubated with 5% bovine serum albumin for 60 minutes. Cells positive for α-SMA were detected by incubation with monoclonal anti-α-SMA antibodies (clone 1A4; Sigma-Aldrich, Steinheim, Germany) for 2 hours at room temperature followed by incubation with 3% hydrogen peroxide for 10 minutes. […]

IL-1β = IL-1β production in LPS-stimulated hPBMC (Luminex); format: cell-based; conditions: Homo sapiens; LPS 1 ng/ml, 18 hours
Method: (§7) 50 ml human buffy coat was aliquoted 25 ml each into two 50 ml conical tubes and 25 ml sterile HBSS was added to each conical tube. The tubes were gently mixed by inverting. Fifteen ml of room temperature Ficoll-Paque Plus (GE Healthcare (location); cat #17-1440-02) was aliquoted into four 50 ml conical tubes. Then 25 ml of the Buffy coat/HBSS mixture was layered gently and slowly on top of the Ficoll. The samples were centrifuged at 450 rpm for 35 minutes. The top layered containing plasma was pipetted off and discarded. The interface containing mononuclear cells was transferred into two 50 ml conical tubes. Both conical tubes were filled to total volume of 50 ml with HBSS and centrifuged at 1200 rpm for 10 minutes. The cells were washed again in HBSS and spun at 1000 rpm for 10 minutes. Cell pellet was resuspended with 20 ml RPMI complete medium (RPMI/5% human sera/1× pen/strep/glut) and counted.
(§8) One hundred μl (2×10^6/ml) of hPBMCs were added to each well of a 96 well flat-bottom plate (final cell count=2×10^5/well) and incubated at 37° C. for 1 hour. […]
(§9) Supernatant samples were analyzed for cytokines in multiplex format according to the manufacturer's instructions (Millipore, Billerica, Mass. 01821) using a Luminex IS100 instrument. […]

IgM production = IgM production in B cell differentiation assay (ELISA); format: cell-based; conditions: Homo sapiens
Method: as §2, §3, §4, §5, §6

MIP-1β = MIP-1β production in LPS-stimulated hPBMC (Luminex); format: cell-based; conditions: Homo sapiens; LPS 1 ng/ml, 18 hours
Method: as §7, §8, §9

NK cell IFN-γ production = assay: NK IgG-induced interferon-gamma (IFN-gamma) assay; format: cell-based, human
Method: NK cells from healthy donors were isolated from buffy coat blood by negative selection using the RosetteSep NK cell enrichment cocktail (Stem Cell Technologies, Vancouver, BC) prior to Ficoll-Hypaque (Fisher Scientific Co LLC, PA) density gradient centrifugation following the manufacturers' instructions. CD56+ NK cells were isolated to ˜85% purity, as determined by flow cytometry (BD Biosciences, CA). Ninety-six-well flat-bottom plates were coated with 100 μg/mL of human IgG (Sigma) overnight at 4° C. The next day, unbound IgG was washed away with cold 1× PBS. NK cells were then plated in the IgG-coated 96-well plates at 2×10^5 cells per well in 180 μL RPMI-1640 Media and 10 ng/mL of rhIL-2 (R & D Systems, MN) was added. […] Final DMSO concentrations were 0.25%. After 48 hours, the supernatants were harvested and analyzed by ELISA for IFN-γ production. […] The data are presented in two ways, (1) as the absolute amount if IFN-γ produced (pg/mL±SEM) and (2) as the percentage of the amount of IFN-γ produced in the presence of 1 μM pomalidomide.

IL-8 = IL-8 production in LPS-stimulated hPBMC (Luminex); format: cell-based; conditions: Homo sapiens; LPS 1 ng/ml, 18 hours
Method: as §7, §8, §9

[4] = system: anti-CD3-stimulated human T cells; assay: Cytokine and chemokine production in anti-human CD3-stimulated human T cells (Luminex); format: cell-based; conditions: 48 hours
Method: as §1

TNF-α = TNF-α production in LPS-stimulated hPBMC (Luminex); format: cell-based; conditions: Homo sapiens; LPS 1 ng/ml, 18 hours
Method: as §7, §8, §9

[5] = system: Rituximab coated lymphoma cells (WSU-DLCL2, Farage, DoHH2, Riva, Raji); assay: ADCC assay: NK cell-mediated ADCC (LDH release); format: cell-based, human; conditions: 0.01 to 10 μM, 48 hours pretreatment, effector:target 10:1
Source text: NK cells from healthy donors were isolated from buffy coat blood by negative selection using the RosetteSep NK cell enrichment cocktail (Stem Cell Technologies, Vancouver, BC) prior to Ficoll-Hypaque (Fisher Scientific Co LLC, PA) density gradient centrifugation following the manufacturers' instructions. CD56+ NK cells were isolated to ˜85% purity, as determined by flow cytometry (BD Biosciences, CA). […] Various lymphoma cell lines (GCB-DLBCL: WSU-DLCL2 and Farage; Follicular lymphoma:DoHH2; ABC-DLBCL: Riva; Burkitt's lymphoma [BL]: Raji) were treated with 5 μg/mL rituximab for 30 minutes at 37° C. Unbound rituximab was washed off, target cells (5×103/100 μL/well) were added to the pretreated effector cells (NK cells) at a 10:1 ratio, and the two were co-incubated for 4 hours at 37° C. […] Using an aliquot of supernatant (50 μL), NK cell cytotoxicity against tumor cells was analyzed using a standard lactate dehydrogenease (LDH) release assay to measure ADCC (CytoTox 96 Non-Radioactive Cytoxicity Assay, Promega, WI). Spontaneous release by target cells alone was <15% of the maximum release, as determined with target cells lysed in 1% Triton X-100. […] The percentage of specific lysis was calculated according to the formula: Percentage specific lysis=100×(experimental−effector spontaneous−target spontaneous)/(target maximum−target spontaneous).

IL-5 = IL-5 production in anti-human CD3-stimulated human T cells; format: cell-based; conditions: 48 hours
Method: as §1

[6] = system: bleomycin induced dermal fibrosis; conditions: previously shown, Akhmetshina et al. 2009; cited from earlier work
IL-10 [7] = assay: IL-10 production in LPS-stimulated hPBMC (Luminex); format: cell-based, human; conditions: at 10 μM; used as upper constraint for EC50s
Method: as §7, §8, §9

IC50 (IgG production; SLE (n = 3)): 46 nM | IC50 (IL-1β): 54 nM | IC50 (IgM production; SLE (n = 3)): 30 nM | IC50 (MIP-1β): > 10 µM | EC50 (NK cell IFN-γ production; Homo sapiens, immobilized IgG and rhIL-2, 48 hours, maximal = IFN-γ produced with 1 μM pomalidomide, read-out: EC50, half-maximal IFN-γ production): 1.5 nM | IC50 (IL-8): > 10 µM | IC50 (TNF-α): 34 nM
SMILES: Cc1nc2cccc(N)c2c(=O)n1C1CCC(=O)NC1=O (stereo not drawn) [test compound, 3-(5-amino-2-methyl-4-oxoquinazolin-3(4H)-yl)piperidine-2,6-dione]
reduction of bleomycin induced dermal thickening [1]: 22±0.28% | IL-10 production (IL-10 [2]; at higher concentrations): inhibited enhancement of IL-10 production | IL-10 production (IL-10 [2]; at lower concentrations): enhanced IL-10 production | IC50 (IgG production; Normal (n = 3)): 61 nM | prevention of dermal thickening ([3]; three weeks): approximately 22±0.49% | reduction of number of α-SMA+ myofibroblasts in lesional skin [3]: 30±0.23% | IC50 (IgM production; Normal (n = 3)): 23 nM | NK cell IFN-γ production (NK cell IFN-γ production; immobilized IgG and IL-2 stimulation): enhanced | IL-2, IL-3, IL-5, IL-10, IL-13, GM-CSF, IFN-γ, RANTES, and TNF-α production in stimulated human T cells [4]: enhanced | NK cell-mediated ADCC [5]: induced dose-dependent NK cell-mediated ADCC in all cell lines | increase of IL-5 production (IL-5; 0.01 μM): 3 fold | increase of IL-5 production (IL-5; 0.1 μM): 4 fold

SMILES: Cc1ccc(NC(=O)c2ccc(CN3CCN(C)CC3)cc2)cc1Nc1nccc(-c2cccnc2)n1 [Imatinib mesylate]
anti-fibrotic effects in bleomycin induced dermal fibrosis [6]: potent anti-fibrotic effects

SMILES: Nc1cccc2c1C(=O)N(C1CCC(=O)NC1=O)C2=O (stereo not drawn) [pomalidomide]
average IL-10 enhancement (IL-10 [7]): 246.9%
